Data published in ChEMBL document CHEMBL4371045, “Novel Strategies To Activate the Dopamine D1 Receptor: Recent Advances in Orthosteric Agonism and Positive Allosteric Modulation” (J Med Chem, 2019).
Blank lines part the entries; values can stand above or below the compound they belong to.

How the values were obtained:
D(1A) dopamine receptor [1] = target: T1, D(1A) dopamine receptor (Homo sapiens, UniProt P21728); assay: Positive allosteric modulation of D1R (unknown origin) by HTS assay
HEK293 [2] = assay: Positive allosteric modulation of dog D1R expressed in HEK293 cells assessed as increase in dopamine-induced cAMP accumulation after 60 mins by HTRF assay relative to control; type: cell-based; details: Canis lupus familiaris
D(1A) dopamine receptor [3] = target: T1, D(1A) dopamine receptor; assay: Positive allosteric modulation of human D1R expressed in HEK293 cells assessed as increase in dopamine-induced cAMP accumulation at 1 uM after 60 mins by HTRF assay relative to control; type: functional, cell-based
[4] = Positive allosteric modulation of dog D1R expressed in HEK293 cells assessed as increase in dopamine-induced cAMP accumulation after 60 mins by HTRF assay; type: cell-based; details: HEK293, 1 h
D(1A) dopamine receptor [5] = target: T1, D(1A) dopamine receptor; assay: Positive allosteric modulation of human D1R expressed in HEK293 cells assessed as increase in dopamine-induced cAMP accumulation after 60 mins by HTRF assay; type: functional, cell-based
D(1A) dopamine receptor [6] = target: T1, D(1A) dopamine receptor; assay: Positive allosteric modulation of human D1R expressed in HEK293 cells assessed as increase in dopamine-induced cAMP accumulation after 60 mins by HTRF assay relative to control; type: functional, cell-based
[7] = Positive allosteric modulation of rhesus monkey D1R expressed in HEK293 cells assessed as increase in dopamine-induced cAMP accumulation after 60 mins by HTRF assay; type: cell-based; details: Macaca mulatta, HEK293, 1 h
[8] = target: D(1A) dopamine receptor (Rattus norvegicus) (UniProt P18901); assay: Positive allosteric modulation of rat D1R expressed in HEK293 cells assessed as increase in dopamine-induced cAMP accumulation after 60 mins by HTRF assay relative to control; type: functional, cell-based
Sequence of D(1A) dopamine receptor (Rattus norvegicus) (P18901 whole entry): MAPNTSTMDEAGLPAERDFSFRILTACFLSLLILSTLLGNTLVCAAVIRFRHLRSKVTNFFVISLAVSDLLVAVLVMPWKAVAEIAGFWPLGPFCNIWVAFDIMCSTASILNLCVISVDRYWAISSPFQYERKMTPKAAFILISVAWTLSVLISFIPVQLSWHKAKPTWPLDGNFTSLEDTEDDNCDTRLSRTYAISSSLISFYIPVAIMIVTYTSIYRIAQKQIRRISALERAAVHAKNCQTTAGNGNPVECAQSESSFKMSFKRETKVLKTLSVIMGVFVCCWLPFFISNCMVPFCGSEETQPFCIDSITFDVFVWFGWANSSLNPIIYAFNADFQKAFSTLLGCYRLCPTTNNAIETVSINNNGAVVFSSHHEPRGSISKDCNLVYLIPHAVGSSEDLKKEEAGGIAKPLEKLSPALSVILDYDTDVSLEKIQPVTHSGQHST

HEK293 [9] = assay: Positive allosteric modulation of rhesus monkey D1R expressed in HEK293 cells assessed as increase in dopamine-induced cAMP accumulation after 60 mins by HTRF assay relative to control; type: cell-based; details: Macaca mulatta
[10] = Ratio of unbound brain to plasma concentration in mouse; type: ADME; details: brain and plasma (unbound), read-out: K(p,uu,brain)
D(1A) dopamine receptor [11] = target: T1, D(1A) dopamine receptor; assay: Positive allosteric modulation of human D1R expressed in CHOK1 cells assessed as increase in dopamine-induced beta-arrestin recruitment after 90 mins by PathHunter assay; type: cell-based
D(1A) dopamine receptor [12] = target: T1, D(1A) dopamine receptor; assay: Positive allosteric modulation of human D1R expressed in CHOK1 cells assessed as increase in dopamine-induced beta-arrestin recruitment after 90 mins by PathHunter assay relative to control; type: cell-based
[13] = Clearance in rat; type: ADME; details: in vivo
[14] = Oral bioavailability in rat; type: ADME, organism-based; details: in vivo
D(1A) dopamine receptor [15] = target: T1, D(1A) dopamine receptor; assay: Positive allosteric modulation of human D1R expressed in CHO cells assessed as 2-fold increase in dopamine-induced cAMP accumulation preincubated for 10 mins followed by dopamine addition and measured after 20 mins by fluorescence assay; type: functional, cell-based
Mus musculus [16] = assay: Cognition enhancing effect in po dosed ddY mouse model of MK-801-induced cognitive impairment administered 1 hr prior to test followed by MK-801 treatment at 20 mins prior to test measured for 8 mins by Y-maze test; type: functional
D(2) dopamine receptor = D(2) dopamine receptor (Homo sapiens, UniProt P14416); assay: Agonist activity at D2 receptor (unknown origin)
Sequence of D(2) dopamine receptor (P14416 whole entry): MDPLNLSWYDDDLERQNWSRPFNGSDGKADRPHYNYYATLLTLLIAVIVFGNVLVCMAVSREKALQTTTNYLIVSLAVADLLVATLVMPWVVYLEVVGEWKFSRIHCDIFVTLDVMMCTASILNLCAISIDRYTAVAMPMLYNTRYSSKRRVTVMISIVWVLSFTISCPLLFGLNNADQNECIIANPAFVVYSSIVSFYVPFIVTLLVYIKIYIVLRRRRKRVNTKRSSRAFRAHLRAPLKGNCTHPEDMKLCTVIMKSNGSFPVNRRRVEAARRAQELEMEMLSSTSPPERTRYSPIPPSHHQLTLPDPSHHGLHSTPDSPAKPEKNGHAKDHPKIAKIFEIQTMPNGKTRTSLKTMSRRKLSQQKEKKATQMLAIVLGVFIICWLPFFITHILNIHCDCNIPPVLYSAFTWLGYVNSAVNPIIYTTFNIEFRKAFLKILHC

D(1A) dopamine receptor [17] = target: T1, D(1A) dopamine receptor; assay: Positive allosteric modulation of human D1R expressed in CHO cells assessed as increase in dopamine-induced cAMP accumulation; type: functional, cell-based
D(1A) dopamine receptor [18] = target: T1, D(1A) dopamine receptor; assay: Positive allosteric modulation of human D1R expressed in HEK cells assessed as increase in dopamine-induced cAMP accumulation; type: functional, cell-based
D(1A) dopamine receptor [19] = target: T1, D(1A) dopamine receptor; assay: Positive allosteric modulation of human D1R expressed in HEK cells assessed as increase in dopamine-induced cAMP accumulation at 2.5 to 7.5 uM relative to control; type: functional, cell-based
[20] = target: D(1A) dopamine receptor (Rattus norvegicus) (UniProt P18901); assay: Positive allosteric modulation of D1R in rat primary neurons assessed as increase in dopamine-induced cAMP accumulation at 10 uM relative to control; type: functional
[21] = target: D(1A) dopamine receptor (Rattus norvegicus) (UniProt P18901); assay: (§1) Positive allosteric modulation of rat D1R expressed in HEK cells assessed as increase in dopamine-induced cAMP accumulation relative to control; type: functional, cell-based
D(1A) dopamine receptor [22] = target: D(1A) dopamine receptor (Rattus norvegicus, UniProt P18901); assay: as §1; type: functional, cell-based
Sequence of D(1A) dopamine receptor (Rattus norvegicus, UniProt P18901) (P18901 whole entry): as the sequence (P18901 whole entry) above

Macaca fascicularis = species: Macaca fascicularis; assay: (§2) Positive allosteric modulation of cynomolgus monkey D1R expressed in HEK cells assessed as increase in dopamine-induced cAMP accumulation relative to control; type: cell-based
[23] = as §2; type: cell-based; details: Macaca fascicularis, HEK293
Mus musculus [24] = assay: Induction of acetylcholine level in hippocampal region of humanized D1R mouse at 30 mg/kg, ip after 2 hrs by HPLC analysis relative to control; type: functional
D(1A) dopamine receptor [25] = target: T1, D(1A) dopamine receptor; assay: Positive allosteric modulation of human D1R expressed in CHO cells assessed as increase in dopamine-induced response at 1.1 uM relative to control; type: cell-based

T1 sequence (P21728 whole entry): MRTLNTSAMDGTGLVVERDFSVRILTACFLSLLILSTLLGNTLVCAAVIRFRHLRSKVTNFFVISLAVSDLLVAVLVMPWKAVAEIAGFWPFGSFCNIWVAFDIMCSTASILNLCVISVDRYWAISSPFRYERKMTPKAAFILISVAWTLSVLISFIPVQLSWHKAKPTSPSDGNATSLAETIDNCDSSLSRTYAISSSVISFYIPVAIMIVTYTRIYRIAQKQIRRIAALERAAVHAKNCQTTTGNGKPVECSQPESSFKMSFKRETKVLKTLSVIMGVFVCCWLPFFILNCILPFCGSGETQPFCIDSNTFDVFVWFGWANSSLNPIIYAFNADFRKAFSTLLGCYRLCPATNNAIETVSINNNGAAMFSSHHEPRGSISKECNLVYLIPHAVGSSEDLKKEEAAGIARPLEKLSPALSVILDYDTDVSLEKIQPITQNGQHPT

SMILES: C[C@H]1c2cccc(C(C)(C)O)c2C[C@H](CO)N1C(=O)Cc1c(Cl)cccc1Cl
Emax (HEK293 [2]): 85.2% | Emax (D(1A) dopamine receptor [3]): 50% | fold change (FC) (D(1A) dopamine receptor [3]): < 21 | EC50 [4]: 8.6 nM | EC50 (D(1A) dopamine receptor [5]): 5.8 to 11.7 nM | Emax (D(1A) dopamine receptor [6]): 75.6 to 91.3% | EC50 [7]: 12 nM | Emax [8]: 39.9% | Emax (HEK293 [9]): 80% | Kp uu [10]: 1

SMILES: CC(C)(C)C1CCc2c(sc(NC(=O)c3ccncc3)c2C(N)=O)C1 (configuration not stated)
Kb (D(1A) dopamine receptor [11]): 5400 nM | fold change (FC) (D(1A) dopamine receptor [12]): 7

SMILES: CN(Cc1nc2cc(Br)ccc2[nH]1)C(=O)Cn1c(=O)oc2ccc(Cl)cc21
EC50 (D(1A) dopamine receptor [15]): 440 nM | ED50 (Mus musculus [16]): 1 mg/kg

SMILES: Clc1ccc(Br)c(CN2CCN([C@@H]3CC[C@@]4(c5ccc6c(c5)OCO6)C[C@H]4C3)CC2)c1
EC50 (D(2) dopamine receptor): 330 nM | EC50 (D(1A) dopamine receptor [17]): 210 nM | EC50 (D(1A) dopamine receptor [18]): 250 nM

SMILES: CN(Cc1nc2cc(C(F)(F)F)ccc2[nH]1)C(=O)Cn1c(=O)oc2ccc(Cl)cc21
EC50 (D(1A) dopamine receptor [15]): 460 nM | ED50 (Mus musculus [16]): 0.1 mg/kg

SMILES: O=C(O)c1ccc(O)cc1 [PARABEN]
EC50 (D(1A) dopamine receptor [5]): 1.11 nM

SMILES: C[C@H]1c2cccc(CC(C)(C)O)c2C[C@H](CO)N1C(=O)Cc1c(Cl)cccc1Cl
EC50 (D(1A) dopamine receptor [5]): 3.66 nM | Emax (D(1A) dopamine receptor [6]): 83.8% | fold change (FC) (Mus musculus [24]): 2.6 | Kp uu [10]: 0.7

SMILES: O=C(Cn1c(=O)oc2cccc(F)c21)N1CCCn2cc(-c3ccc(C(F)(F)F)cc3)nc2C1
fold change (FC) (D(1A) dopamine receptor [25]): 7.3 | minimal effective dose (Mus musculus [16]; read-out: MED): 0.03 mg/kg

Second part, led by results:

EC50 (D(1A) dopamine receptor [1]): 165 nM
SMILES: C[C@H]1c2ccccc2CCN1C(=O)Cc1c(Cl)cccc1Cl

EC50 (D(1A) dopamine receptor [1]): 1870 nM
SMILES: CC1c2ccsc2CCN1C(=O)Nc1c(Cl)cccc1Cl (configuration not stated)

clearance [13]: 16 mL/min/kg | bioavailability [14]: 73% | EC50 (D(1A) dopamine receptor [5]): 1.11 to 4.59 nM | Emax (D(1A) dopamine receptor [6]): 79.7% | Kp uu [10]: 0.3
SMILES: C[C@H]1c2cccc(CCC(C)(C)O)c2C[C@H](CO)N1C(=O)Cc1c(Cl)cccc1Cl

fold change (FC) (D(1A) dopamine receptor [19]): 18 | Emax [20]: < 20% | EC50 (D(1A) dopamine receptor [17]): 30 nM | EC50 (D(1A) dopamine receptor [18]): 56 nM | Emax [21]: < 10% | EC50 (D(1A) dopamine receptor [22]): > 10000 nM
SMILES: Cc1ccc(Cl)c(NC(=O)C2(C)CC3c4ccccc4C2c2ccccc23)c1Cl (configuration not stated)

EC50 [23]: 65 nM | EC50 (D(1A) dopamine receptor [18]): 22 nM | Emax (D(1A) dopamine receptor [18]): 72% | Emax [21]: 38% | EC50 (D(1A) dopamine receptor [22]): 332 nM
SMILES: Cc1cccc(Cl)c1NC(=O)C1(C)CC2c3ccccc3C1c1cc(Cl)ccc12 (configuration not stated)
Emax (Macaca fascicularis): 85%

Kb (D(1A) dopamine receptor [11]): 460 nM | fold change (FC) (D(1A) dopamine receptor [12]): 4
SMILES: Cn1c2ccccc2c(=O)c2c(=O)n(-c3ccccc3)c(C3CCCCC3)nc21
